Experimental data taken from ChEMBL document CHEMBL6153028, “Understanding the synergistic sensitization of natural products and antibiotics: An effective strategy to combat MRSA” (2025).

What was measured:
Assay type in all cases: functional
Staphylococcus aureus [1] = experiment: Synergistic antimicrobial activity against Staphylococcus aureus DSM 1104 planktonic cells assessed as fractional inhibitory concentration index in presence of gentamicin by checkerboard assay
Staphylococcus aureus [2] = experiment: Synergistic antimicrobial activity against Staphylococcus aureus DSM 1104 planktonic cells assessed as fractional inhibitory concentration index in presence of oxacillin by checkerboard assay
Staphylococcus aureus [3] = experiment: Synergistic antimicrobial activity against methicillin-resistant Staphylococcus aureus CCARM 3089 assessed as fractional inhibitory concentration index in presence of ciprofloxacin incubated for 24 hrs by checkerboard assay
Staphylococcus aureus [4] = experiment: Synergistic antimicrobial activity against methicillin resistant Staphylococcus aureus assessed as fractional inhibitory concentration index incubated for 24 hrs in presence of ciprofloxacin by checkerboard assay
Staphylococcus aureus [5] = experiment: Synergistic antibacterial activity against methicillin resistant Staphylococcus aureus assessed as fractional inhibitory concentration index in presence of erythromycin by checkerboard assay
Staphylococcus aureus [6] = experiment: Synergistic antibacterial activity against methicillin resistant Staphylococcus aureus assessed as fractional inhibitory concentration index in presence of streptomycin incubated for 24 hrs by checkerboard assay
Staphylococcus aureus [7] = experiment: Synergistic antibacterial activity against methicillin resistant Staphylococcus aureus assessed as fractional inhibitory concentration index in presence of penicillin incubated for 24 hrs by checkerboard assay
Staphylococcus aureus [8] = experiment: Synergistic antibacterial activity against methicillin resistant Staphylococcus aureus assessed as fractional inhibitory concentration index in presence of ampicillin incubated for 24 hrs by checkerboard assay
Staphylococcus aureus [9] = experiment: Synergistic antibacterial activity against methicillin resistant Staphylococcus aureus assessed as fractional inhibitory concentration index in presence of oxacillin incubated for 24 hrs by checkerboard assay
Staphylococcus aureus [10] = experiment: Synergistic antimicrobial activity against methicillin-resistant Staphylococcus aureus assessed as fractional inhibitory concentration index in presence of chloramphenicol incubated for 24 hrs by checkerboard assay
Staphylococcus aureus [11] = experiment: Synergistic antimicrobial activity against methicillin-resistant Staphylococcus aureus assessed as fractional inhibitory concentration index in presence of vancomycin by checkerboard assay
Staphylococcus aureus [12] = experiment: Synergistic antimicrobial activity against methicillin-resistant Staphylococcus aureus assessed as fractional inhibitory concentration index in presence of levofloxacin by checkerboard assay
Staphylococcus aureus [13] = experiment: Synergistic antibacterial activity against methicillin resistant Staphylococcus aureus assessed as fractional inhibitory concentration index in presence of penicillin by checkerboard assay
Staphylococcus aureus [14] = experiment: Synergistic antibacterial activity against methicillin resistant Staphylococcus aureus assessed as fractional inhibitory concentration index in presence of cephradine by checkerboard assay
Staphylococcus aureus [15] = experiment: Synergistic antibacterial activity against methicillin resistant Staphylococcus aureus assessed as fractional inhibitory concentration index in presence of ampicillin by checkerboard assay
Staphylococcus aureus [16] = experiment: Synergistic antimicrobial activity against methicillin-resistant Staphylococcus aureus assessed as fractional inhibitory concentration index in presence of gentamicin incubated for 24 hrs by checkerboard assay
Staphylococcus aureus [17] = experiment: Synergistic antimicrobial activity against methicillin-resistant Staphylococcus aureus assessed as fractional inhibitory concentration index in presence of minocycline incubated for 24 hrs by checkerboard assay
Staphylococcus aureus [18] = experiment: Synergistic antimicrobial activity against methicillin-resistant Staphylococcus aureus CCARM 3089 assessed as fractional inhibitory concentration index in presence of pencillin incubated for 24 hrs by checkerboard assay
Staphylococcus aureus [19] = experiment: Synergistic antimicrobial activity against methicillin-resistant Staphylococcus aureus assessed as fractional inhibitory concentration index in presence of ciprofloxacin incubated for 24 hrs by checkerboard assay
Staphylococcus aureus [20] = experiment: Synergistic antibacterial activity against methicillin resistant Staphylococcus aureus assessed as fractional inhibitory concentration index in presence of minocycline by checkerboard assay
Staphylococcus aureus [21] = experiment: Synergistic antimicrobial activity against methicillin-resistant Staphylococcus aureus CCARM 3089 assessed as fractional inhibitory concentration index in presence of Ceftiofur incubated for 24 hrs by checkerboard assay

## O=C(/C=C/c1ccc(O)cc1)CC(=O)/C=C/c1ccc(O)cc1 [BISDEMETHOXYCURCUMIN]
Staphylococcus aureus [1]
  fractional inhibitory concentration index (FICI): 0.1
Staphylococcus aureus [2]
  fractional inhibitory concentration index (FICI): 0.51

## COc1cc(CNC(=O)CCCC/C=C/C(C)C)ccc1O [CAPSAICIN]
Staphylococcus aureus [3]
  fractional inhibitory concentration index (FICI): 0.18

## COc1cc(/C=C/C(=O)CC(=O)/C=C/c2ccc(O)c(OC)c2)ccc1O [CURCUMIN]
Staphylococcus aureus [4]
  fractional inhibitory concentration index (FICI): 0.25

## COc1ccc(-c2cc(=O)c3c(O)cc(O)cc3o2)cc1O [DIOSMETIN]
Staphylococcus aureus [5]
  fractional inhibitory concentration index (FICI): 0.28

## CC(C)=CCc1cc([C@@H]2CC(=O)c3ccc(O)c(CC=C(C)C)c3O2)ccc1O [GLABROL]
Staphylococcus aureus [6]
  fractional inhibitory concentration index (FICI): 0.188

## O=C(/C=C/c1ccc(O)cc1)c1ccc(O)cc1O [ISOLIQUIRITIGENIN]
Staphylococcus aureus [7]
  fractional inhibitory concentration index (FICI): 0.375
Staphylococcus aureus [8]
  fractional inhibitory concentration index (FICI): 0.375
Staphylococcus aureus [9]
  fractional inhibitory concentration index (FICI): 0.312

## COc1c2ccoc2c(OC)c2oc(=O)ccc12 [ISOPIMPINELLIN]
Staphylococcus aureus [10]
  fractional inhibitory concentration index (FICI): <0.5
Staphylococcus aureus [11]
  fractional inhibitory concentration index (FICI): <0.5
Staphylococcus aureus [12]
  fractional inhibitory concentration index (FICI): <0.5

## O=C1C[C@@H](c2ccc(O)cc2)Oc2cc(O)ccc21 [LIQUIRTIGENIN]
Staphylococcus aureus [13]
  fractional inhibitory concentration index (FICI): 0.375
Staphylococcus aureus [8]
  fractional inhibitory concentration index (FICI): 0.375
Staphylococcus aureus [9]
  fractional inhibitory concentration index (FICI): 0.372

## O=c1cc(-c2ccc(O)c(O)c2)oc2cc(O)cc(O)c12 [LUTEOLIN]
Staphylococcus aureus [14]
  fractional inhibitory concentration index (FICI): 0.44
Staphylococcus aureus [15]
  fractional inhibitory concentration index (FICI): 0.125

## COc1c2ccoc2c(OCC=C(C)C)c2oc(=O)ccc12 [PHELLOPTERIN]
Staphylococcus aureus [16]
  fractional inhibitory concentration index (FICI): <0.5
Staphylococcus aureus [17]
  fractional inhibitory concentration index (FICI): 0.5

## Oc1cc(O)cc(Oc2c(O)cc(O)c3c2Oc2c(O)cc4oc5c(Oc6cc(O)cc(O)c6)c(O)cc(O)c5c4c2O3)c1 [PHLOROFUCOFUROECKOL A]
Staphylococcus aureus [18]
  fractional inhibitory concentration index (FICI): 0.393

## Oc1cc(O)cc(/C=C/c2ccc(O)c(O)c2)c1 [PICEATANNOL]
Staphylococcus aureus [19]
  fractional inhibitory concentration index (FICI): 0.375

## O=c1c(O)c(-c2ccc(O)c(O)c2)oc2cc(O)cc(O)c12 [QUERCETIN]
Staphylococcus aureus [20]
  fractional inhibitory concentration index (FICI): <=0.5

## O=c1c(O)cc([C@H]2Oc3cc(O)cc(O)c3C[C@H]2O)cc2c([C@H]3Oc4cc(O)cc(O)c4C[C@H]3O)cc(O)c(O)c12 [THEAFLAVIN]
Staphylococcus aureus [21]
  fractional inhibitory concentration index (FICI): 0.187
